According to patent publication US20240384268A1, “Oligonucleotides” (Hudson Institute of Medical Research, priority 2021, published 2024):

Target: T1, human TLR7 (Homo sapiens, UniProt Q9NYK1)
T1 construct: HA; host or cells: 293XL-hTLR7-HA (HEK293)
T1 sequence (Q9NYK1 27-1049): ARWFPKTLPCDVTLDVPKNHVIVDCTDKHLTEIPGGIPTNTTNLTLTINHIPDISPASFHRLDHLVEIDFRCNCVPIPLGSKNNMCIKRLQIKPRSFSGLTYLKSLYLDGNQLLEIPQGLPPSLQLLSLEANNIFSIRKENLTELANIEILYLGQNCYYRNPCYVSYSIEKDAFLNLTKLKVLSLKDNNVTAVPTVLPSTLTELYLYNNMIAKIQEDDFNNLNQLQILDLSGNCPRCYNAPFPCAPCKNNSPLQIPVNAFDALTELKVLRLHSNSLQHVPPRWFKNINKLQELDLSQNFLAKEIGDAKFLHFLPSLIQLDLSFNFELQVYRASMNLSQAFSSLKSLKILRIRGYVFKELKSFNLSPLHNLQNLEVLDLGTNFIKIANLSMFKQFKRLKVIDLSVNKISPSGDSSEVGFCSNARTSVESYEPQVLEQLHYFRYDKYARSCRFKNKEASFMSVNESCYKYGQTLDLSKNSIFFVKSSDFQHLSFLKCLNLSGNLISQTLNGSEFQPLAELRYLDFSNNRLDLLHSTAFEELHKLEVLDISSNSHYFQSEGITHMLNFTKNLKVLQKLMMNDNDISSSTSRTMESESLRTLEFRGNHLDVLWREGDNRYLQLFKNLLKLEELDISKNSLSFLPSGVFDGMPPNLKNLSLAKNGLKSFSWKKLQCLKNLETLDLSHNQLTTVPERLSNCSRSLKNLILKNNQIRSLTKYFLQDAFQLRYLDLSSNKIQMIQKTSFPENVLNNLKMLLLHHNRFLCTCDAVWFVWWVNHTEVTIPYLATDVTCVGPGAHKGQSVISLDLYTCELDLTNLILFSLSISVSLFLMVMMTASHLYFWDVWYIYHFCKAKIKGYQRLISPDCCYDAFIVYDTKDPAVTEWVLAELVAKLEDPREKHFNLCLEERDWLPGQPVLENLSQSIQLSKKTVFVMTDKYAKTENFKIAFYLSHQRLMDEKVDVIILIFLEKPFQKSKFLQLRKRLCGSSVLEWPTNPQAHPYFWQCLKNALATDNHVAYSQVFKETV
Assay: HEK-TLR7 NF-κB-luciferase reporter, R848 stimulation
Format: cell-based
Settings: ASO 100 nM; relative to R848 only, given as fraction

Row | Sequence | TLR7 100 nM (averaged NF-κB-Luciferase level relative to R848 condition)
1 | AAAGGACTGAGGAAAG (antisense; LNA-modified, pattern not given here) [CAMSAP1-6273 LNA KL] | 0.513
2 | AACACTTCGTGGGGTC (antisense; LNA-modified, pattern not given here) [HPRT LNA-666 V1] | 0.899
3 | AACCCCTTTCACCATC (antisense; LNA-modified, pattern not given here) [MB21D1-689 LNA KL] | 0.771
4 | AATCCAACAAAGTCTG (antisense; LNA-modified, pattern not given here) [HPRT LNA-692 KL] | 0.727
5 | ACCACGTCTGCTCTAA (antisense; LNA-modified, pattern not given here) [CAMSAP1-1635 LNA KL] | 1.078
6 | ACGTTCAGTCCTGTCC (antisense; LNA-modified, pattern not given here) [HPRT LNA-294 V1] | 0.601
7 | ACTTCGTGGGGTCCTT (antisense; LNA-modified, pattern not given here) [HPRT LNA-663 V1] | 0.804
8 | AGATTTCAGAGCAGCT (antisense; LNA-modified, pattern not given here) [EGFR-4885 LNA KL] | 0.438
9 | AGCTTCGAGGCCCCAG (antisense; LNA-modified, pattern not given here) [MB21D1-616 LNA V1] | 0.554
10 | AGGACTCCAGATGTTT (antisense; LNA-modified, pattern not given here) [HPRT LNA pos cont] | 0.437
11 | AGGCCCTTCGCACTTC (antisense; LNA-modified, pattern not given here) [EGFR-1225 LNA V1] | 0.737
12 | AGGTCTTGGCTTCGTG (antisense; LNA-modified, pattern not given here) [MB21D1-524 LNA V1] | 0.457
13 | AGTGTTGAGATACTCG (antisense; LNA-modified, pattern not given here) [EGFR-3652 LNA KL] | 0.559
14 | ATCTGGCAGCCCATCA (antisense; LNA-modified, pattern not given here) [CTNN2B-2516 LNA V1] | 0.663
15 | ATGGCCTCCCATCTCC (antisense; LNA-modified, pattern not given here) [HPRT LNA-330 V1] | 0.550
16 | ATGTGATGGCCTCCCA (antisense; LNA-modified, pattern not given here) [HPRT LNA-335 V1] | 0.499
17 | CACTTCGTGGGGTCCT (antisense; LNA-modified, pattern not given here) [HPRT LNA-664 V1] | 0.868
18 | CATCCACCACGTCGTC (antisense; LNA-modified, pattern not given here) [EGFR-3266 LNA V1] | 0.741
19 | CCAACACTTCGTGGGG (antisense; LNA-modified, pattern not given here) [HPRT LNA-668 V1] | 0.808
20 | CCACATCCTGTGGCTC (antisense; LNA-modified, pattern not given here) [CAMSAP1-2906 LNA V1] | 0.789
21 | CCACTTGGCAGACCAT (antisense; LNA-modified, pattern not given here) [CTNN2B-1575 LNA V1] | 0.765
22 | CCAGCAGGTCAGCAAA (antisense; LNA-modified, pattern not given here) [HPRT LNA-388 KL] | 1.101
23 | CCCACTTGGCAGACCA (antisense; LNA-modified, pattern not given here) [CTNN2B-1576 LNA V1] | 1.024
24 | CCTCCCATCTCCTTCA (antisense; LNA-modified, pattern not given here) [HPRT LNA-326 V1] | 0.758
25 | CCTTGCACGTGGCTTC (antisense; LNA-modified, pattern not given here) [EGFR-1013 LNA V1] | 0.617
26 | CGGCCTCGGAAGCTCT (antisense; LNA-modified, pattern not given here) [MB21D1-168 LNA V1] | 0.594
27 | CGTATTATAGCCGATT (antisense; LNA-modified, pattern not given here) [NC1 LNA PS 3-10-3] | 0.754
28 | CTGCAGCTTCCTTGTC (antisense; LNA-modified, pattern not given here) [CTNN2B-2136 LNA V1] | 0.467
29 | CTTCGTGGGGTCCTTT (antisense; LNA-modified, pattern not given here) [HPRT LNA-662 V1] | 0.685
30 | CTTGAAGCATCGTATC (antisense; LNA-modified, pattern not given here) [CTNN2B-3648 LNA KL] | 0.363

Same assay, conditions: ASO 500 nM; relative to R848 only, given as fraction

Row | Sequence | TLR7 500 nM (averaged NF-κB-Luciferase level relative to R848 condition)
31 | AAAGGACTGAGGAAAG (antisense; LNA-modified, pattern not given here) [CAMSAP1-6273 LNA KL] | 0.267
32 | AACACTTCGTGGGGTC (antisense; LNA-modified, pattern not given here) [HPRT LNA-666 V1] | 0.445
33 | AACCCCTTTCACCATC (antisense; LNA-modified, pattern not given here) [MB21D1-689 LNA KL] | 0.426
34 | AATCCAACAAAGTCTG (antisense; LNA-modified, pattern not given here) [HPRT LNA-692 KL] | 0.433
35 | ACCACGTCTGCTCTAA (antisense; LNA-modified, pattern not given here) [CAMSAP1-1635 LNA KL] | 0.532
36 | ACGTTCAGTCCTGTCC (antisense; LNA-modified, pattern not given here) [HPRT LNA-294 V1] | 0.136
37 | ACTTCGTGGGGTCCTT (antisense; LNA-modified, pattern not given here) [HPRT LNA-663 V1] | 0.736
38 | AGATTTCAGAGCAGCT (antisense; LNA-modified, pattern not given here) [EGFR-4885 LNA KL] | 0.021
39 | AGCTTCGAGGCCCCAG (antisense; LNA-modified, pattern not given here) [MB21D1-616 LNA V1] | 0.111
40 | AGGACTCCAGATGTTT (antisense; LNA-modified, pattern not given here) [HPRT LNA pos cont] | 0.293
41 | AGGCCCTTCGCACTTC (antisense; LNA-modified, pattern not given here) [EGFR-1225 LNA V1] | 0.164
42 | AGGTCTTGGCTTCGTG (antisense; LNA-modified, pattern not given here) [MB21D1-524 LNA V1] | 0.050
43 | AGTGTTGAGATACTCG (antisense; LNA-modified, pattern not given here) [EGFR-3652 LNA KL] | 0.115
44 | ATCTGGCAGCCCATCA (antisense; LNA-modified, pattern not given here) [CTNN2B-2516 LNA V1] | 0.279
45 | ATGGCCTCCCATCTCC (antisense; LNA-modified, pattern not given here) [HPRT LNA-330 V1] | 0.117
46 | ATGTGATGGCCTCCCA (antisense; LNA-modified, pattern not given here) [HPRT LNA-335 V1] | 0.128
47 | CACTTCGTGGGGTCCT (antisense; LNA-modified, pattern not given here) [HPRT LNA-664 V1] | 0.240
48 | CATCCACCACGTCGTC (antisense; LNA-modified, pattern not given here) [EGFR-3266 LNA V1] | 0.353
49 | CCAACACTTCGTGGGG (antisense; LNA-modified, pattern not given here) [HPRT LNA-668 V1] | 0.446
50 | CCACATCCTGTGGCTC (antisense; LNA-modified, pattern not given here) [CAMSAP1-2906 LNA V1] | 0.363
51 | CCACTTGGCAGACCAT (antisense; LNA-modified, pattern not given here) [CTNN2B-1575 LNA V1] | 0.470
52 | CCAGCAGGTCAGCAAA (antisense; LNA-modified, pattern not given here) [HPRT LNA-388 KL] | 0.942
53 | CCCACTTGGCAGACCA (antisense; LNA-modified, pattern not given here) [CTNN2B-1576 LNA V1] | 0.639
54 | CCTCCCATCTCCTTCA (antisense; LNA-modified, pattern not given here) [HPRT LNA-326 V1] | 0.843
55 | CCTTGCACGTGGCTTC (antisense; LNA-modified, pattern not given here) [EGFR-1013 LNA V1] | 0.281
56 | CGGCCTCGGAAGCTCT (antisense; LNA-modified, pattern not given here) [MB21D1-168 LNA V1] | 0.139
57 | CGTATTATAGCCGATT (antisense; LNA-modified, pattern not given here) [NC1 LNA PS 3-10-3] | 0.226
58 | CTGCAGCTTCCTTGTC (antisense; LNA-modified, pattern not given here) [CTNN2B-2136 LNA V1] | 0.053
59 | CTTCGTGGGGTCCTTT (antisense; LNA-modified, pattern not given here) [HPRT LNA-662 V1] | 0.233
60 | CTTGAAGCATCGTATC (antisense; LNA-modified, pattern not given here) [CTNN2B-3648 LNA KL] | 0.044

Same assay, conditions: MOE-modified ASO at 100 nM; averaged NF-κB-Luciferase relative to R848 condition

Row | Sequence | TLR7 100 nM
61 | ACACTTCGTGGGGTCCTTTT (antisense; 2'-MOE modified, pattern not given here) [HPRT-663 MOE] | 0.403

Same assay, conditions: MOE-modified ASO at 500 nM; averaged NF-κB-Luciferase relative to R848 condition

Row | Sequence | TLR7 500 nM
62 | ACACTTCGTGGGGTCCTTTT (antisense; 2'-MOE modified, pattern not given here) [HPRT-663 MOE] | 0.235
